Source: the supplement of paper PMC10307832

What was measured:
Test in all cases: relative viability (nuclei count vs DMSO), 5 days (fraction); higher = more cells survive
Dactolisib + Decitabine = compound: Cn1c(=O)n(-c2ccc(C(C)(C)C#N)cc2)c2c3cc(-c4cnc5ccccc5c4)ccc3ncc21 [Dactolisib] + Nc1ncn([C@H]2C[C@H](O)[C@@H](CO)O2)c(=O)n1 [Decitabine] (partner 2 µM)
Outline: (§1)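 Each reported value is a median over duplicate plates. It expresses relative viability: treated-well nuclei count divided by vehicle-well nuclei count. Lung cancer cell lines in 1536-well plates were dosed by pin tool a day after seeding, alone with one drug or with a fixed anchor-drug dose plus five library-drug doses (not always all listed) in √10 steps, and nuclei were counted after 5 days.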

Dactolisib + Olaparib = compound: Cn1c(=O)n(-c2ccc(C(C)(C)C#N)cc2)c2c3cc(-c4cnc5ccccc5c4)ccc3ncc21 [Dactolisib] + O=C(c1cc(Cc2n[nH]c(=O)c3ccccc23)ccc1F)N1CCN(C(=O)C2CC2)CC1 [Olaparib] (partner 8 µM)
Outline: as §1

Dactolisib + OSI-027 = compound: Cn1c(=O)n(-c2ccc(C(C)(C)C#N)cc2)c2c3cc(-c4cnc5ccccc5c4)ccc3ncc21 [Dactolisib] + COc1cccc2cc(-c3nc([C@H]4CC[C@H](C(=O)O)CC4)n4ncnc(N)c34)[nH]c12 [OSI-027] (partner 0.5 µM)
Outline: as §1

AZ505 + Pemetrexed = compound: C1CCC(CC1)N(CCNCCC2=C3C(=C(C=C2)O)NC(=O)CO3)C(=O)CCNCCC4=CC(=C(C=C4)Cl)Cl [AZ505] + Nc1nc2[nH]cc(CCc3ccc(C(=O)N[C@@H](CCC(=O)O)C(=O)O)cc3)c2c(=O)[nH]1 [Pemetrexed] (partner 0.2 µM)
Outline: as §1

Row | Cell Line | relative viability (Dactolisib + Decitabine; first compound 0.002 µM) | relative viability (Dactolisib + Decitabine; first compound 0.006325 µM) | relative viability (Dactolisib + Decitabine; first compound 0.02 µM) | relative viability (Dactolisib + Decitabine; first compound 0.06325 µM) | relative viability (Dactolisib + Decitabine; first compound 0.2 µM) | relative viability (Dactolisib + Olaparib; first compound 0.002 µM) | relative viability (Dactolisib + Olaparib; first compound 0.006325 µM) | relative viability (Dactolisib + Olaparib; first compound 0.02 µM) | relative viability (Dactolisib + Olaparib; first compound 0.06325 µM) | relative viability (Dactolisib + Olaparib; first compound 0.2 µM) | relative viability (Dactolisib + OSI-027; first compound 0.002 µM) | relative viability (Dactolisib + OSI-027; first compound 0.006325 µM) | relative viability (Dactolisib + OSI-027; first compound 0.02 µM) | relative viability (Dactolisib + OSI-027; first compound 0.06325 µM) | relative viability (Dactolisib + OSI-027; first compound 0.2 µM) | relative viability (AZ505 + Pemetrexed; first compound 0.08 µM) | relative viability (AZ505 + Pemetrexed; first compound 0.253 µM) | relative viability (AZ505 + Pemetrexed; first compound 0.8 µM) | relative viability (AZ505 + Pemetrexed; first compound 2.53 µM) | relative viability (AZ505 + Pemetrexed; first compound 8 µM)
1 | A-427 | 0.605 | 0.571 | 0.609 | 0.457 | 0.436 | 0.877 | 0.675 | 0.707 | 0.619 | 0.495 | 0.59 | 0.461 | 0.47 | 0.375 | 0.419 | 0.964 | 0.961 | 0.904 | 0.948 | 1.01
2 | NCI-H1792 | 0.56 | 0.429 | 0.414 | 0.186 | 0.121 | 0.427 | 0.319 | 0.394 | 0.135 | 0.101 | 0.742 | 0.72 | 0.654 | 0.391 | 0.266 | 0.702 | 0.509 | 0.609 | 1.01 | 0.901
3 | LCLC-97TM1 | 0.261 | 0.24 | 0.23 | 0.172 | 0.155 | 0.383 | 0.416 | 0.319 | 0.256 | 0.093 | 0.673 | 0.564 | 0.542 | 0.717 | 0.459 | 0.161 | 0.253 | 0.193 |  | 0.175
4 | LCLC-103H | 0.678 | 0.677 | 0.592 | 0.458 | 0.433 | 0.823 | 0.743 | 0.647 | 0.571 | 0.395 | 0.509 | 0.5 | 0.465 | 0.519 | 0.431 | 0.453 | 0.491 | 0.457 | 0.519 | 0.448
5 | PC-3 [JPC-3] | 0.87 | 0.783 | 0.878 | 0.786 | 0.655 | 1.17 | 1.07 | 1.21 | 1.02 | 0.963 | 0.862 | 0.86 | 0.72 | 0.851 | 0.768 | 0.97 |  | 1.18 | 1.09 | 1.27
6 | BEN | 0.802 | 0.692 | 0.63 | 0.518 | 0.41 | 0.988 | 0.939 | 1.08 | 0.635 | 0.478 | 0.302 | 0.33 | 0.302 | 0.32 | 0.315 | 0.682 | 0.678 | 0.871 | 0.746 | 0.786
7 | NCI-H1666 | 0.836 | 0.714 | 0.756 | 0.607 | 0.596 | 0.955 | 0.683 | 0.874 | 0.713 | 0.747 | 1.04 | 0.895 | 0.864 | 0.755 | 0.687 | 0.81 | 0.835 | 0.736 | 0.85 | 0.841
8 | LC-2-ad | 0.888 | 0.871 | 0.727 | 0.784 | 0.73 | 0.825 | 0.749 | 0.747 | 0.864 | 0.852 | 0.938 | 0.844 | 0.769 | 0.582 | 0.546 | 0.279 | 0.278 | 0.294 | 0.306 | 0.258
